The text below walks through data of US20140309192A1, “MODULATORS OF THE G PROTEIN-COUPLED MAS RECEPTOR AND THE TREATMENT OF DISORDERS RELATED THERETO” (ARENA PHARMACEUTICALS, INC., priority 2011, published 2014).

In assay [1] the target is T1, rat Mas receptor (Rattus norvegicus, UniProt P12526).
T1 construct: expressed in transfected cells; host or cells: HEK293 (ATCC CRL-1573)
T1 sequence (P12526 1-324): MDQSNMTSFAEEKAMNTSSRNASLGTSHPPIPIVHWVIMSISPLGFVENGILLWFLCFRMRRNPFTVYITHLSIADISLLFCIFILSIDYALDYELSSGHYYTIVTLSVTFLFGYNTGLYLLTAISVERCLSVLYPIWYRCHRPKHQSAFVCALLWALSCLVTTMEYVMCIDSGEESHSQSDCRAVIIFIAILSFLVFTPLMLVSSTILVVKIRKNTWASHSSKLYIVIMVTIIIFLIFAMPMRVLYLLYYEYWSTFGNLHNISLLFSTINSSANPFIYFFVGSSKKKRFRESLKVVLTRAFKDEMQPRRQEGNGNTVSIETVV
Kind of assay: HTRF IP1 assay, HEK293 cells expressing rat Mas receptor. In kind it is cell-based. An excerpt: (§1) Human and rat Mas receptors were either transiently or stably expressed in HEK293 cells. For transient transfections, human or rat Mas in pHM6 vector were transfected into HEK293 cells using Lipofectamine® (Invitrogen #18324-012). HEK293 cells transfected with empty pHM6 vector were used as a control. For generation of stable cell lines, cDNA expression plasmids encoding human or rat Mas genes and the neo^r gene were transfected into HEK293 cells (ATCC# CRL-1573) using Lipofectamine® (Invitrogen) according to the manufacturer's instructions. Stable receptor expressing pools were then generated over 3 weeks by standard techniques in the presence of 500 μg/mL Geneticin® (Gibco). Individual receptor stable pools were dilution cloned using standard techniques and clones were comparatively evaluated in inositol phosphate accumulation assays. Preferred clones were banked and cultured as needed. HEK293 cells were used as controls. The 384 well IP-One HTRF® Assay (Cisbio #62P1APEJ) was performed as described by the manufacturer's protocol. Cells were plated in at 100,000 cells per well in 15 μL DMEM (Gibco #11960) and incubated in a CO2 incubator at 37° C. for 2 h. Five μL of compounds diluted in 2× stimulation buffer plus 0.4% BSA (Sigma (#A3059) were added to each well and serial diluted IP1 standards (Cisbio #62IP1CDA) were also added to corresponding wells at this step. After the cells were incubated for 4 h in a CO2 incubator at 37° C., d2-labeled IP1 and cryptate-labeled anti-IP1 monoclonal antibody diluted in lysis buffer were added sequentially in 10 μL per well and the assay plates were kept in the dark at room temperature overnight. Ratiometric measurements of fluorescence emission at 665 nm and 620 nm were obtained using a Pherastar fluorometer (BMG Labtech). IP1 levels in each well were calculated according to the standard curves on each plate. IC50 values were obtained by fitting data to a nonlinear curve-fitting program (GraphPad Software, Inc., La Jolla Calif.).

Assay [2] has as its target T2, human Mas receptor (Homo sapiens, UniProt P04201).
T2 construct: expressed in transfected cells; host or cells: HEK293 (ATCC CRL-1573)
T2 sequence (P04201 1-325): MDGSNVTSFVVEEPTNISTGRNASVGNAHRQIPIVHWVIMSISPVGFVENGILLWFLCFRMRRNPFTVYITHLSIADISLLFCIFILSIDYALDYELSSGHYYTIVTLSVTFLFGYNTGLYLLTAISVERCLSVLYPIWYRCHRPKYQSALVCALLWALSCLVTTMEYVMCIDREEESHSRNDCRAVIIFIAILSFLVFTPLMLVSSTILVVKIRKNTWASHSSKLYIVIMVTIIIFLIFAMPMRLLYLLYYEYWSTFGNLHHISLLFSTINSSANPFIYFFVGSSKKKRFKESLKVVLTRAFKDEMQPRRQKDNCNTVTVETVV
Nature of the assay: HTRF IP1 assay, HEK293 cells expressing human Mas receptor. The format is cell-based.
Description: as §1

Assay [3] relates to control HEK293 cells. Nature of the assay: HTRF IP1 assay in control HEK293 cells. Particulars: IP assay. In kind it is cell-based. From the text: Human and rat Mas receptors were either transiently or stably expressed in HEK293 cells. For transient transfections, human or rat Mas in pHM6 vector were transfected into HEK293 cells using Lipofectamine® (Invitrogen #18324-012). HEK293 cells transfected with empty pHM6 vector were used as a control. For generation of stable cell lines, cDNA expression plasmids encoding human or rat Mas genes and the neo^r gene were transfected into HEK293 cells (ATCC# CRL-1573) using Lipofectamine® (Invitrogen) according to the manufacturer's instructions. Stable receptor expressing pools were then generated over 3 weeks by standard techniques in the presence of 500 μg/mL Geneticin® (Gibco). Individual receptor stable pools were dilution cloned using standard techniques and clones were comparatively evaluated in inositol phosphate accumulation assays. Preferred clones were banked and cultured as needed. HEK293 cells were used as controls. The 384 well IP-One HTRF® Assay (Cisbio #62P1APEJ) was performed as described by the manufacturer's protocol. Cells were plated in at 100,000 cells per well in 15 μL DMEM (Gibco #11960) and incubated in a CO2 incubator at 37° C. for 2 h. […] IP1 levels in each well were calculated according to the standard curves on each plate. […]

The test system of assay [4] is Male Sprague-Dawley rats. Kind of assay: Coronary artery ligation model, LV area at risk and infarct size (Example 5.6). The settings on record: 10 mg/kg i.v. bolus 10 min before ligation or 3 min before reperfusion; 30 min ischemia, 2 h reperfusion. The format is in vivo, rat.
Assay [5] has as its system isolated perfused rat hearts. Nature of the assay: Ex vivo coronary flow, Langendorff perfused isolated rat hearts. The settings on record: for decrease in coronary flow induced by AR234960 (1 μM) after pretreatment: pretreatment 10 min: AR244555 5 μM or U-73122 0.5 μM. Here is the method: Coronary flow was measured in male Mas^−/− and Mas^+/+ mice, and in male Sprague-Dawley rats using Langendorff perfused isolated hearts. Freshly isolated hearts were placed on a Langendorff apparatus (Harvard Apparatus) and perfused at a constant pressure of 80 mmHg with a modified Krebs-Henseleit buffer solution (Sigma K3753) and aerated with 95% oxygen and 5% carbon dioxide, pH 7.35-7.4. The temperature was maintained at 37° C. by surrounding the heart with a water-heated glassware chamber. Coronary flow was measured using a flow measurement system (Harvard Apparatus) which included the transit time flow meter and a flow probe built into an adaptor block located at the perfusate inflow port. Data were recorded continuously using an ISOHEART data acquisition system (Harvard Apparatus). After a 20-min equilibration period, Mas compounds were added to the perfusion buffer reservoir at the desired concentration (agonist AR234960 at 1 μM, or inverse agonist AR244555 at 5 μM) and coronary flow was recorded for 10 min
To determine the role of the Mas-Gq-PLC pathway in regulating coronary flow, the Mas inverse agonist AR244555 (5 μM) or the PLC inhibitor U-73122 (0.5 μM) was added to the perfusion buffer for 10 min and then the agonist AR234960 (1 μM) was added to the perfusion buffer. Coronary flow was recorded for another 10 min Changes in coronary flow induced by AR234960 were calculated as percentage of the coronary flow at 10 min following AR234960 treatment, relative to the coronary flow measured immediately prior to addition of AR234960. This protocol allowed for measurement of agonist mediated vasoconstrictor activity, and accounted for changes in baseline coronary flow due to inverse agonist treatment alone.
To determine whether Mas agonist-induced changes in coronary flow were endothelium-dependent, the responses in Langendorff perfused hearts were measured after chemical removal of endothelium with sodium deoxycholate. After a 20-min equilibration period, sodium deoxycholate was added to the perfusion buffer at 0.2 mg/mL for 3 min and then washed out for 10 min Mas compounds were added and coronary flow was recorded for 10 min Adenosine (1 μM), a coronary vasodilator that targets the endothelium, was used as a control to verify effective removal of endothelium.

The subject of assay [6] is isolated perfused rat hearts. Nature of the assay: Global ischemia-reperfusion in Langendorff perfused rat hearts (coronary flow, arrhythmias). Here is the method:
For ischemia-reperfusion experiments, Langendorff perfused rat hearts were equilibrated for 20 min and then baseline coronary flow was recorded for 10 min Thereafter, all hearts were subjected to 30 min of global ischemia by stopping perfusate flow, followed by 30 min of reperfusion with either vehicle (0.01% DMSO), Mas agonist AR234960 (1 μM) or Mas inverse agonist AR244555 (5 μM) added to the perfusion buffer. Electrocardiography was also continuously recorded during the observation period through electrodes attached directly to the surface of the ventricles to detect cardiac arrhythmias during reperfusion.

Assay [7] concerns Male Sprague Dawley rats. Nature of the assay: Carrageenan-induced inflammatory paw swelling model. In kind it is in vivo, rat. The settings on record: i.p. 30 minutes prior to λ-carrageenan; AR305352 1, 3 and 10 mg/kg; dexamethasone 2 mg/kg; 1, 2, 3, 6 and 24 hours. The protocol:
In a blinded and randomized fashion, rats were intraperitoneally dosed with a Mas receptor inverse agonist (AR305352, N-(4-chloro-2-(4-(3,3,3-trifluoropropyl)piperazin-1-yl)phenyl)-2,6-difluorobenzamide, see Zhang, T., et. al., Am J Physiol Heart Circ Physiol 302:H299-H311, (2012)) at 1, 3 and 10 mg/kg, 20% HPCD or 2 mg/kg of dexamethasone, 30 minutes prior to injection of 100 μl of saline or 100 μg of λ-carrageenan into the left or right foot pad of anesthetized animals. The difference in footpad width was measured using a caliper at 1, 2, 3, 6 and 24 hours post-injection.

For assay [8], the target named is Mas receptor. The settings on record: Dong, et al., Cell 106:619-632 (2001); cited from earlier work.

“Also recorded” adds a separate entry of the source.

Consider `C=CCCN1CCC2(CC1)CN(C(=O)c1c(F)cccc1F)c1ccc(Cl)cc12` [AR244555, 1′-(but-3-enyl)-1,2-dihydro-5-chloro-1-(2,6-difluoro-benzoyl)-spiro[3H-indole-3,4′-piperidine]], for which the IC50 in assay [1] (IP assay, HEK293 cells stably expressing rat Mas, 4 h, means ± SEM, read-out: Rat IC50) came to 348 ± 67 nM; in assay [2] (IP assay, HEK293 cells stably expressing human Mas, 4 h, means ± SEM, read-out: Human IC50) it was 186 ± 11 nM. Further, the “ligand activity in IP assay, rat Mas” value in assay [1] (Table C, line under Rat IC50) was “(inverse agonist)”. In assay [2] (Table C, line under Human IC50), the “ligand activity in IP assay, human Mas” value is listed as “(inverse agonist)”. The “effects in control HEK293 cells” value in assay [3] is reported as “There were detected effects”. In addition, the “infarct size (percentage of the area at risk) vs vehicle” value in assay [4] was “reduced infarct size by about half; also recorded: cardioprotective”. Further, the “coronary flow in isolated perfused rat hearts” value in assay [5] (AR234960 1 μM, AR244555 5 μM, 10 min) is recorded as “modest but significant increase; also recorded: significantly increased”. The “decrease in coronary flow induced by AR234960 (1 μM) after pretreatment” value in assay [5] is “prevented the decrease”. Also, the arrhythmias during reperfusion entry in assay [6] (5 μM, six hearts) is listed as “no arrhythmias were observed”. Also, the “coronary flow during reperfusion compared to vehicle treated hearts” value in assay [6] (30 min global ischemia, 30 min reperfusion, AR234960 1 μM, AR244555 5 μM in perfusate during reperfusion) is given as “significantly elevated coronary flow”.
With `O=C(Nc1ccc(Cl)cc1N1CCN(CCC(F)(F)F)CC1)c1c(F)cccc1F` [AR305352, N-(4-chloro-2-(4-(3,3,3-trifluoropropyl)piperazin-1-yl)phenyl)-2,6-difluorobenzamide], the “foot-pad inflammation / paw swelling” value in assay [7] is on record as “suppress foot-pad inflammation in a dose-dependent manner”.
As to `COc1ccc2c(c1)CC[C@@H]1[C@@H]2CC[C@]2(C)[C@@H](NCCCCCCN3C(=O)C=CC3=O)CC[C@@H]12` [Compound U-73122, 1-(6-((8R,9S,13S,14S,17S)-3-methoxy-13-methyl-7,8,9,11,12,13,14,15,16,17-decahydro-6H-cyclopenta[a]phenanthren-17-ylamino)hexyl)-1H-pyrrole-2,5-dione], the “decrease in coronary flow induced by AR234960 (1 μM) after pretreatment” value in assay [5] is listed as “blocked the decrease; also recorded: prevented the decrease”.
For the molecule `Nc1ncnc2c1ncn2[C@@H]1O[C@H](CO)[C@@H](O)[C@H]1O` [adenosine], the “compound-mediated change in coronary flow in endothelium denuded hearts” value in assay [5] (after sodium deoxycholate, AR234960 1 μM, adenosine 1 μM) was “abolished”.
Regarding NPFF, the EC50 in assay [8] was roughly 400 nM.
